In ChEMBL document CHEMBL5356939, “Research progress of anticancer drugs targeting CDK12” (RSC Med Chem, 2023):

How the values were obtained:
[1] = target: T1, Cyclin-dependent kinase 9 (Homo sapiens, UniProt P50750); experiment: Inhibition of recombinant human CDK9 expressed in baculovirus infected Insect cell measured after 30 mins by scintillation counter analysis
[2] = target: T2, Protein cereblon/Cyclin-dependent kinase 12 (Homo sapiens, UniProt Q96SW2+Q9NYV4); experiment: Protac activity at CRBN/CDK12 in human MOLT-4 cells assessed as […] by Westernblot analysis; format: cell-based
[3] = target: T3, Cyclin-dependent kinase 12 (Homo sapiens, UniProt Q9NYV4); experiment: Inhibition of GST-tagged recombinant human CDK12 (696 to 1082 residues) expressed in Insect cell in presence of ATP by Km ATP assay
[4] = target: T4, Cyclin-dependent kinase 7 (Homo sapiens, UniProt P50613); experiment: Inhibition of full length recombinant human CDK7 expressed in Insect cell in presence of ATP
[5] = target: Cyclin-dependent kinase 1 (Homo sapiens, UniProt P06493); experiment: Inhibition of full length recombinant human CDK1 expressed in Insect cell in presence of ATP
[6] = target: T1, Cyclin-dependent kinase 9
Description: Binding affinity to CDK9 (unknown origin) assessed as dissociation constant

[7] = target: Cyclin-dependent kinase 6 (Homo sapiens, UniProt Q00534)
Description: Binding affinity to CDK6 (unknown origin) assessed as dissociation constant

[8] = Antiproliferative activity against human Neuroblastoma cell assessed as […] measured after 72 hrs; format: functional, cell-based
[9] = tested on: Lung cancer cell line; experiment: Antiproliferative activity against human Lung cancer cell line assessed as […] measured after 72 hrs; format: functional, cell-based
[10] = target: T3, Cyclin-dependent kinase 12; experiment: Inhibition of GST-tagged recombinant human CDK12 (696 to 1082 residues) expressed in Insect cell in presence of ATP by high ATP assay
[11] = target: T1, Cyclin-dependent kinase 9; experiment: Inhibition of full length recombinant human CDK9 expressed in Insect cell in presence of ATP
[12] = target: Cyclin-dependent kinase 2 (Homo sapiens, UniProt P24941); experiment: Inhibition of full length recombinant human CDK2 expressed in Insect cell in presence of ATP
[13] = target: T2, Protein cereblon/Cyclin-dependent kinase 12; experiment: Protac activity at CRBN/CDK12 in human Jurkat cells assessed as […] measured after 6 hrs by Westernblot analysis; format: cell-based
[14] = target: Cyclin-dependent kinase 12 (Mus musculus, UniProt Q14AX6); experiment: Inhibition of CDK12 in mouse OV2944-HM-1 cells by Westernblot analysis; format: cell-based
[15] = target: Cyclin-dependent kinase 13 (Homo sapiens, UniProt Q14004); experiment: Inhibition of CDK13 (unknown origin)
[16] = target: T3, Cyclin-dependent kinase 12; experiment: Inhibition of CDK12 (unknown origin)
[17] = target: T4, Cyclin-dependent kinase 7; experiment: Inhibition of CDK7 (unknown origin)

T4 sequence (P50613 whole entry): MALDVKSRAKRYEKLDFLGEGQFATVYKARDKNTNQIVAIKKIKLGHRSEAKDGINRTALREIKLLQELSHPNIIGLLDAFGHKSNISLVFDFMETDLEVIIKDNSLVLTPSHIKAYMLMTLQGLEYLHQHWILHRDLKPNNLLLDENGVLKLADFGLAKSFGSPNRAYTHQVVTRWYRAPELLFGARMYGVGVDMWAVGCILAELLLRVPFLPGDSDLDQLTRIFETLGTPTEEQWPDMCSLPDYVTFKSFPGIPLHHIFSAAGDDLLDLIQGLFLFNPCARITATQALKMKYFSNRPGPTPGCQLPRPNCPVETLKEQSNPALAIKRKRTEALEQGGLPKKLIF
T1 sequence (P50750 whole entry): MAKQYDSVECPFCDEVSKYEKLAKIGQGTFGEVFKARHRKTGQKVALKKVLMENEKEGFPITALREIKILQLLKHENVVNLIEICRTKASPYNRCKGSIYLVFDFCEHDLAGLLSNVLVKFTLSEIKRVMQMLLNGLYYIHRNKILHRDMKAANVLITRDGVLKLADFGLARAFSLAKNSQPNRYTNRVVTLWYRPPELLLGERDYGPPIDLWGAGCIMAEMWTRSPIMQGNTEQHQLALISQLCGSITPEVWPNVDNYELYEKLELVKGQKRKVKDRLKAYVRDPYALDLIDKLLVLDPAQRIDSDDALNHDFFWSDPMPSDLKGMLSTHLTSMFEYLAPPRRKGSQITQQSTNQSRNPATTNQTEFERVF
T2 sequence (Q9NYV4 whole entry, the tested form may be a part): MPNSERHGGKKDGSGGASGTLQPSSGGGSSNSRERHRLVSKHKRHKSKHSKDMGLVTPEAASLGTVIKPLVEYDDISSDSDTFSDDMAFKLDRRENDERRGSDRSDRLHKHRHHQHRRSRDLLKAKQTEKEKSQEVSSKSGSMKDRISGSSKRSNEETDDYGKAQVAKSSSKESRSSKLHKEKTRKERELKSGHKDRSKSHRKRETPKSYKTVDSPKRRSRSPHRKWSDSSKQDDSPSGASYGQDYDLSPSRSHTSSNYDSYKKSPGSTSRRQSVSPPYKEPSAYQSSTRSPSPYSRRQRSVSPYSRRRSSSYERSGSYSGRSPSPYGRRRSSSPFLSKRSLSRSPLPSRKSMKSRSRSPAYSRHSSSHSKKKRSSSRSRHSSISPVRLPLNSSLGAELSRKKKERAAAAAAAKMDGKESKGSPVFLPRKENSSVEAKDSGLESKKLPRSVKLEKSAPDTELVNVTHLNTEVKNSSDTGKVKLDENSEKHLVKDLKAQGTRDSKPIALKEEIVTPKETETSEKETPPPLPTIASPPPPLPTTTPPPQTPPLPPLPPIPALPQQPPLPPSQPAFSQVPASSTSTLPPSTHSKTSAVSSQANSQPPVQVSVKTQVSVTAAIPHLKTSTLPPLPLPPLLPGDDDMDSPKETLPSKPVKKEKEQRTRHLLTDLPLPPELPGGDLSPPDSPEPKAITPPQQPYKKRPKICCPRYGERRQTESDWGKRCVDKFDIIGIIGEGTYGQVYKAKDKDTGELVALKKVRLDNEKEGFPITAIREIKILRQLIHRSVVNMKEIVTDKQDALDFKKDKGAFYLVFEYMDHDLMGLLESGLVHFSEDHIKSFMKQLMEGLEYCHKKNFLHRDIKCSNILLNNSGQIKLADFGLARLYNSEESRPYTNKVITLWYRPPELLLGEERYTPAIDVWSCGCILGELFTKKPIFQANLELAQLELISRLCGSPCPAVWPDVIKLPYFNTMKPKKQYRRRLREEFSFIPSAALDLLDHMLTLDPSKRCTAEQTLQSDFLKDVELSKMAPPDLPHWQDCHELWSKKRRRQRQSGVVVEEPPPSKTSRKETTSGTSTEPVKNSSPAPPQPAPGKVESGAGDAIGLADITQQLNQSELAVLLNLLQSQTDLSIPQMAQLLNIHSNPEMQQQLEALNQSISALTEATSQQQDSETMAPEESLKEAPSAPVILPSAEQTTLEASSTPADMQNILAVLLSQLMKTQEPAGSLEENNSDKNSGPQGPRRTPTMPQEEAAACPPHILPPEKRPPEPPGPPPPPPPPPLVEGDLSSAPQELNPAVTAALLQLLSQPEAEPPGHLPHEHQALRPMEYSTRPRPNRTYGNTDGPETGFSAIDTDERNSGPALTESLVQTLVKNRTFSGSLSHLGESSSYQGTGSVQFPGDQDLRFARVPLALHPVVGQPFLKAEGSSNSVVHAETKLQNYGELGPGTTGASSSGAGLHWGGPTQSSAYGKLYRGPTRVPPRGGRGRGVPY
T2 sequence (Q96SW2 whole entry, the tested form may be a part): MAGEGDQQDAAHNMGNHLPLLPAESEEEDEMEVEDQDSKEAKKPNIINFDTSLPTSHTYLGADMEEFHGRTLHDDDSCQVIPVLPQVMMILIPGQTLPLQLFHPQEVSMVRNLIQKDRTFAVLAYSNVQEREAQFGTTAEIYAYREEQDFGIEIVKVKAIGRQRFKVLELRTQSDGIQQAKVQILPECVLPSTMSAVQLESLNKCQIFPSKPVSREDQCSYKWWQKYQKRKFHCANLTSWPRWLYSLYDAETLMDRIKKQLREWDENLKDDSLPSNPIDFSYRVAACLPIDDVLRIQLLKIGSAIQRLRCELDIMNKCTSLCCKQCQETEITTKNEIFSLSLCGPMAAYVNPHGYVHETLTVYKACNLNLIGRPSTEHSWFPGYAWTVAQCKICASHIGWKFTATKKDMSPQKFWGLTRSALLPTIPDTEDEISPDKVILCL
T3 sequence (Q9NYV4 whole entry, the tested form may be a part): as the sequence (Q9NYV4 whole entry, the tested form may be a part) above
Chain of Cyclin-dependent kinase 1 (P06493 whole entry): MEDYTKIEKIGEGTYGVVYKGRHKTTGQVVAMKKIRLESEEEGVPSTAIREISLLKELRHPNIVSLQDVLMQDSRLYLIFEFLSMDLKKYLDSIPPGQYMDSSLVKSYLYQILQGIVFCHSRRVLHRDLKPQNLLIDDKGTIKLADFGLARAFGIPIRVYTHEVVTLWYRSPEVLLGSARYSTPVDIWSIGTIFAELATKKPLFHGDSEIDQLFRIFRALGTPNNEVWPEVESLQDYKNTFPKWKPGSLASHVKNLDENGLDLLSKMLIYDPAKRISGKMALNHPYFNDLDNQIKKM
Chain of Cyclin-dependent kinase 12 (Mus musculus, UniProt Q14AX6) (Q14AX6 whole entry): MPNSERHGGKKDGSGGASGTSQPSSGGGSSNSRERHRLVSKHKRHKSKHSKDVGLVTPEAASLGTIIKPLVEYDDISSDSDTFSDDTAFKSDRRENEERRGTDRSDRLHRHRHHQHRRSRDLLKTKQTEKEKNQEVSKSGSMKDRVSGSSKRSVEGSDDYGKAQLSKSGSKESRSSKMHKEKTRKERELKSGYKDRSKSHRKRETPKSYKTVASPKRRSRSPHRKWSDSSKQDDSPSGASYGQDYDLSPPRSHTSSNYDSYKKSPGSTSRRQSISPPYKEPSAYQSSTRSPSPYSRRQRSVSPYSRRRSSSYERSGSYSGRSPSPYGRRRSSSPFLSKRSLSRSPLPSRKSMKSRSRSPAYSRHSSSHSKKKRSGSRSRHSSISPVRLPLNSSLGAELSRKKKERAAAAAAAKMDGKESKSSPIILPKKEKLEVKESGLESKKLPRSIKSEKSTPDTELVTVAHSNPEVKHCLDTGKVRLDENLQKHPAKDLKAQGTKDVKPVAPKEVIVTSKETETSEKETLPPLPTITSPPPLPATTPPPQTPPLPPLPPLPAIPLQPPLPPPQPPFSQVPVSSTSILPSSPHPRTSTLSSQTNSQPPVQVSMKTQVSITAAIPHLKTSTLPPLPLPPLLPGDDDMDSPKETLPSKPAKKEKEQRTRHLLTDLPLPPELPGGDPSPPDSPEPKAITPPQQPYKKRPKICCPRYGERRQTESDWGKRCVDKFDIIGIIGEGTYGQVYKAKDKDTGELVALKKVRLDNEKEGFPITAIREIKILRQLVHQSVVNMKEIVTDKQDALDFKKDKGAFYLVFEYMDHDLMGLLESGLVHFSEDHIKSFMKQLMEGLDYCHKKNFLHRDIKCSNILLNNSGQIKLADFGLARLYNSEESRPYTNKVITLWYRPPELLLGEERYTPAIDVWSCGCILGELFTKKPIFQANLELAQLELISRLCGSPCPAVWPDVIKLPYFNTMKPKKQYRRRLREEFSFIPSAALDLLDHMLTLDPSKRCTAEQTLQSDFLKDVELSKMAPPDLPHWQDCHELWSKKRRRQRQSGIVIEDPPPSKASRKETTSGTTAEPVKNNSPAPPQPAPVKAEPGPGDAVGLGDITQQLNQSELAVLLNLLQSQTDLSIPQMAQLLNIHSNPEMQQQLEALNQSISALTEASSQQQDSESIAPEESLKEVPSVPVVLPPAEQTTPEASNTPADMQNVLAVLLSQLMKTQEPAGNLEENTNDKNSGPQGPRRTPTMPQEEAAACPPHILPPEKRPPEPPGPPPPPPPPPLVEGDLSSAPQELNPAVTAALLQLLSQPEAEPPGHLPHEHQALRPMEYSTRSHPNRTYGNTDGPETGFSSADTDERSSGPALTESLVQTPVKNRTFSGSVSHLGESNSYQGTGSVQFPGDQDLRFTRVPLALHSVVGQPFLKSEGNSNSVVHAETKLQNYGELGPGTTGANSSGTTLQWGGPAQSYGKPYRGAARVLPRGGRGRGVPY
Chain of Cyclin-dependent kinase 6 (Q00534 whole entry): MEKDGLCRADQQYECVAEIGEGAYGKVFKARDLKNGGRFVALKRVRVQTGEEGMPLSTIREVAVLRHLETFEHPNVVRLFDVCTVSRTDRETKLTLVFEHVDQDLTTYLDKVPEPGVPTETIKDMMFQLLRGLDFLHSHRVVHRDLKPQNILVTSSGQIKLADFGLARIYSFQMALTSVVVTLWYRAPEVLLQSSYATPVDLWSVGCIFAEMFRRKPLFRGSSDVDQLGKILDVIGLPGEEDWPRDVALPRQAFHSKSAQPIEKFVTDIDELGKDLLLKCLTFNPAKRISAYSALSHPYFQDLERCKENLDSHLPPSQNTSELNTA

Question: For `CN(C)C/C=C/C(=O)Nc1ccc(C(=O)N2CCC[C@@H](Nc3ncc(Cl)c(-c4c[nH]c5ccccc45)n3)C2)cc1`, which IC50 [1] is on record?
Answer: 10.5 µM

Question: Which IC50 [2] does the source give for `Clc1cnc(N[C@H]2CCCNC2)nc1-c1c[nH]c2ccccc12` here?
Answer: 0.107 µM

Question: Which IC50 [3] does the source give for `CCn1cnc2c(NCc3nc4ccc(F)c(F)c4[nH]3)nc(N3CCCC[C@H]3CCO)nc21` here?
Answer: 0.014 µM

Question: What about the IC50 [4] of the same molecule?
Answer: > 30 µM

Question: What about the IC50 [5] of the same molecule?
Answer: 28.6 µM

Question: With `Cn1cc(-n2cnc3c(NCc4nc5cc(Cl)c(Cl)cc5[nH]4)nc(N4CCOCC4)nc32)cn1` as the molecule, how does the Kd [6] read?
Answer: > 10 µM

Question: And the Kd [7]?
Answer: 5.1 µM

Question: For `CC(C)n1cnc2c(NCc3nc4ccc(F)c(F)c4[nH]3)nc(N3CCCC[C@H]3CCO)nc21`, which IC50 [3] is on record?
Answer: 0.031 µM

Question: Which IC50 [8] does the source give for `C=CC(=O)Nc1cccc(Nc2nc(N3CCCC[C@H]3CCO)nc3c2ncn3CC)c1` here?
Answer: 0.008 µM

Question: And the IC50 [9]?
Answer: 0.008 µM

Question: With `CCc1cnn2c(NCc3nc4ccc(F)c(F)c4[nH]3)cc(N3CCCC[C@H]3CCO)nc12` as the molecule, how does the IC50 [3] read?
Answer: 0.022 µM

Question: What about the IC50 [10] of the same molecule?
Answer: 0.047 µM

Question: What about the IC50 [11] of the same molecule?
Answer: 0.24 µM

Question: And the IC50 [4]?
Answer: 21.2 µM

Question: What about the IC50 [12] of the same molecule?
Answer: 0.04 µM

Question: What about the IC50 [5] of the same molecule?
Answer: 3.41 µM

Question: For `CC(C)S(=O)(=O)c1ccccc1Nc1nc(N[C@H]2CCCN(CCCCCCCNC(=O)COc3cccc4c3C(=O)N(C3CCC(=O)NC3=O)C4=O)C2)ncc1Cl` (stereo partly drawn), which IC50 [13] is on record?
Answer: 0.006 µM

Question: With `O=C(COc1cccc2c1C(=O)N(C1CCC(=O)NC1=O)C2=O)NCCCCCCCN1CCC[C@H](Nc2ncc(Cl)c(-c3c[nH]c4ccccc34)n2)C1` (stereo partly drawn) as the molecule, how does the IC50 [2] read?
Answer: 0.009 µM

Question: Which EC50 [14] does the source give for `O=C(CN1CCC[C@@H](Nc2ncc(Cl)c(-c3c[nH]c4ccccc34)n2)C1)Nc1ccc([As](O)O)cc1` here?
Answer: 0.035 µM

Question: For `CN(C)C/C=C/C(O)Nc1ccc(C(=O)Nc2cccc(Nc3ncc(Cl)c(-c4c[nH]c5ccccc45)n3)c2)cc1` (stereo not drawn), which IC50 [15] is on record?
Answer: 0.628 µM

Question: And the IC50 [16]?
Answer: 0.893 µM

Question: What about the IC50 [17] of the same molecule?
Answer: 0.238 µM

Question: For `O=C(CN1CCC[C@@H](Nc2ncc(Cl)c(-c3c[nH]c4ccccc34)n2)C1)Nc1ccc([As]2SCCS2)cc1`, which EC50 [14] is on record?
Answer: 0.032 µM
